In patent US10981926B2 (Janssen Pharmaceutica NV, priority 2016, dated 2021):

Columns and labels:
[1] = test system: rGABA-gated Cl− channel; assay: GABA-Gated Cl Channel Antagonist Radioligand Binding Assay; design: species or system rat; details: 10 μM single point, [35S]-TBPS, cerebral cortex membrane homogenates
Method in brief: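 Rat cerebral cortex membranes (120 μg protein) incubated 120 min at 22° C with 3 nM […] in 50 mM Na2HPO4/KH2PO4 pH 7.4, 500 mM NaCl; nonspecific binding defined with 20 μM picrotoxinin. Bound label counted after filtration; values are percent inhibition of specific binding at 10 μM compound.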

[2] = biological target: T1, F876L mutant Androgen Receptor (AR-F876L) (Homo sapiens (Human), UniProt P10275, F877L); assay: LNCaP-AR-F876L AG reporter assay (agonist mode); type: cell-based; details: for EC50: agonist mode, pEC50 = −Log10(EC50 in Molar), read-out: LNCaP-AR-F876L AG pEC50 (converted); for Emax: maximum % stimulation (agonist response) over the tested concentration range, read-out: LNCaP-AR-F876L AG MAX % Stim
[3] = biological target: T2, wild-type Androgen Receptor (AR-wt) (Homo sapiens (Human), UniProt P10275); assay: LNCaP-AR-wt ANT reporter assay (antagonist mode); type: cell-based; details: for IC50: read-out: LNCaP-AR-wt ANT pIC50 (converted); for Emax: maximum % inhibition of R1881 control response over the tested concentration range, read-out: LNCaP-AR-wt ANT MAX % Inh
[4] = biological target: T1, F876L mutant Androgen Receptor (AR-F876L); assay: LNCaP-AR-F876L ANT reporter assay (antagonist mode); type: cell-based; details: for IC50: read-out: LNCaP-AR-F876L ANT pIC50 (converted); for Emax: maximum % inhibition of R1881 control response over the tested concentration range, read-out: LNCaP-AR-F876L ANT MAX % Inh
[5] = biological target: T2, wild-type Androgen Receptor (AR-wt); assay: LNCaP-AR-wt AG reporter assay (agonist mode); type: cell-based; details: for EC50: agonist mode, pEC50 = −Log10(EC50 in Molar), read-out: LNCaP-AR-wt AG pEC50 (converted); for Emax: maximum % stimulation (agonist response) over the tested concentration range, read-out: LNCaP-AR-wt AG MAX % Stim
[6] = antagonist mode, pIC50 = −Log10(IC50 in Molar)

T2 sequence (P10275 whole entry): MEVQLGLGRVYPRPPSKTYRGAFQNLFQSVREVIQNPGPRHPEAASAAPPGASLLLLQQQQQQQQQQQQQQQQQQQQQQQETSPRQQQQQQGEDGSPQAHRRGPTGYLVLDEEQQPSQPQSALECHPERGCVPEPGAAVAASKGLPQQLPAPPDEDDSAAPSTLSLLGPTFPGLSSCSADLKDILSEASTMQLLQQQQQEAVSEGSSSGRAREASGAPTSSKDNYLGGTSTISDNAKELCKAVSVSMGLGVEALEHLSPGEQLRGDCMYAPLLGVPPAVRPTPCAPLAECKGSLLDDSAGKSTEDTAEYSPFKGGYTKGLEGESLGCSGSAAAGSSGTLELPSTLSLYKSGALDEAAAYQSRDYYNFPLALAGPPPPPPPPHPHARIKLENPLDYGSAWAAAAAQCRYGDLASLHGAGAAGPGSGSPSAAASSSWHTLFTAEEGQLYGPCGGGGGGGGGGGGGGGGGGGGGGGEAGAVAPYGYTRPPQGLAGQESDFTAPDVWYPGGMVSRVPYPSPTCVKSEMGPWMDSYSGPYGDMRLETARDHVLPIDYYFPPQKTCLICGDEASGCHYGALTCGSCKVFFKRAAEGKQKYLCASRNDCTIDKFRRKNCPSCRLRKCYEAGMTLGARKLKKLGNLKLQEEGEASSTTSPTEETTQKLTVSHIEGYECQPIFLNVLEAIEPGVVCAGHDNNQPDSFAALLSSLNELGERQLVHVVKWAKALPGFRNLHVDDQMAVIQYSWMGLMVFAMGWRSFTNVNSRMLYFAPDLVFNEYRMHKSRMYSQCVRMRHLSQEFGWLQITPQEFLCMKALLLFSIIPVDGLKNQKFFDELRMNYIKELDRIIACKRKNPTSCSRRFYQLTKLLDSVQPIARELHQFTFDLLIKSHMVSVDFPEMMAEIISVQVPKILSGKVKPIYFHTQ
T1 sequence (P10275 whole entry F877L): as the sequence (P10275 whole entry) above, with F877L counted along it

rGABA-gated Cl− channel % inh @10 μM [1] | EC50 [2] | Emax [2] | IC50 [3, 6] | Emax [3] | IC50 [4, 6] | Emax [4] | EC50 [5] | Emax [5] | LNCaP-AR-wt ANT pIC50 [3, 6] | LNCaP-AR-F876L ANT pIC50 [4, 6] | SMILES
33.7% | > 15.1 µM | 0.1% | 25.1 nM | 102% | 11.2 nM | 100% | > 15.1 µM | 0.6% |  |  | CNC1CCC(Oc2ccc(N3C(=S)N(c4cnc(C#N)c(C(F)(F)F)c4)C(=O)C34CCC4)cc2)CC1 (stereo not drawn) [Cpd 80, 5-[8-[4-[4-(methylamino)cyclohexoxy]phenyl]-5-oxo-7-thioxo-6,8-diazaspiro[3.4]octan-6-yl]-3-(trifluoromethyl)pyridine-2-carbonitrile]
28.8% | > 15.1 µM | 0.1% | 28.2 nM | 102% | 17 nM | 101% | > 15.1 µM | 0.4% |  |  | CN(C)C1CCC(Oc2ccc(N3C(=S)N(c4cnc(C#N)c(C(F)(F)F)c4)C(=O)C34CCC4)cc2)CC1 (stereo not drawn) [Cpd 81, 5-[8-[4-[4-(dimethylamino)cyclohexoxy]phenyl]-5-oxo-7-thioxo-6,8-diazaspiro[3.4]octan-6-yl]-3-(trifluoromethyl)pyridine-2-carbonitrile]
36.7% | > 15.1 µM | 0.8% | 155 nM | 98.7% | 100 nM | 97.5% | > 15.1 µM | 0.4% |  |  | N#Cc1ncc(N2C(=O)C3(CCC3)N(c3ccc(OCCN4CCC5(CCOC5)CC4)cc3)C2=S)cc1C(F)(F)F [Cpd 82, 5-[8-[4-[2-(3-oxa-8-azaspiro[4.5]decan-8-yl)ethoxy]phenyl]-5-oxo-7-thioxo-6,8-diazaspiro[3.4]octan-6-yl]-3-(trifluoromethyl)pyridine-2-carbonitrile]
20.5% | > 15.1 µM | 0.2% | 229 nM | 102% | 129 nM | 99% | > 15.1 µM | -0.2% |  |  | N#Cc1ncc(N2C(=O)C3(CCC3)N(c3ccc(OCCN4CC5(C4)CC(F)(F)C5)cc3)C2=S)cc1C(F)(F)F [Cpd 83, 5-[8-[4-[2-(2,2-difluoro-6-azaspiro[3.3]heptan-6-yl)ethoxy]phenyl]-5-oxo-7-thioxo-6,8-diazaspiro[3.4]octan-6-yl]-3-(trifluoromethyl)pyridine-2-carbonitrile]
21.9% | > 15.1 µM | 0.1% | 525 nM | 101% | 81.3 nM | 101% | > 15.1 µM | 0.2% |  |  | CN1CC(Oc2ccc(N3C(=S)N(c4cnc(C#N)c(C(F)(F)F)c4)C(=O)C34CCC4)cc2)C1 [Cpd 84, 5-[8-[4-(1-methylazetidin-3-yl)oxyphenyl]-5-oxo-7-thioxo-6,8-diazaspiro[3.4]octan-6-yl]-3-(trifluoromethyl)pyridine-2-carbonitrile]
15.3% | > 15.1 µM | 0.1% | 123 nM | 100% | 75.9 nM | 99.7% | > 15.1 µM | 0% |  |  | N#Cc1ncc(N2C(=O)C3(CCC3)N(c3ccc(OC4CC5(CNC5)C4)cc3)C2=S)cc1C(F)(F)F [Cpd 86, 5-[8-[4-(6-azaspiro[3.3]heptan-2-yloxy)phenyl]-5-oxo-7-thioxo-6,8-diazaspiro[3.4]octan-6-yl]-3-(trifluoromethyl)pyridine-2-carbonitrile]
−14.8% | > 15.1 µM | 0.1% |  | 101% |  | 100% | > 15.1 µM | 0.1% | 6.92 | 7.09 | Cc1cc(N2C(=O)C3(CCC3)N(c3ccc(OC4CCNCC4)nc3)C2=S)cnc1C#N [Cpd 87, 3-methyl-5-[5-oxo-8-[6-(4-piperidyloxy)-3-pyridyl]-7-thioxo-6,8-diazaspiro[3.4]octan-6-yl]pyridine-2-carbonitrile]
